According to ChEMBL document CHEMBL3399947, “Structure activity relationship of selective GABA uptake inhibitors” (Bioorg Med Chem, 2015):

How the values were obtained:
Assay type in all cases: cell-based
GABA transporter 3 = biological target: T1, GABA transporter 3 (Mus musculus, UniProt P31649); assay: Inhibition of mouse mGAT3 expressed in HEK293 cells assessed as inhibition of [3H]GABA uptake after 3 mins incubation by TopCount microplate scintillation counting analysis
T1 sequence (P31649 whole entry): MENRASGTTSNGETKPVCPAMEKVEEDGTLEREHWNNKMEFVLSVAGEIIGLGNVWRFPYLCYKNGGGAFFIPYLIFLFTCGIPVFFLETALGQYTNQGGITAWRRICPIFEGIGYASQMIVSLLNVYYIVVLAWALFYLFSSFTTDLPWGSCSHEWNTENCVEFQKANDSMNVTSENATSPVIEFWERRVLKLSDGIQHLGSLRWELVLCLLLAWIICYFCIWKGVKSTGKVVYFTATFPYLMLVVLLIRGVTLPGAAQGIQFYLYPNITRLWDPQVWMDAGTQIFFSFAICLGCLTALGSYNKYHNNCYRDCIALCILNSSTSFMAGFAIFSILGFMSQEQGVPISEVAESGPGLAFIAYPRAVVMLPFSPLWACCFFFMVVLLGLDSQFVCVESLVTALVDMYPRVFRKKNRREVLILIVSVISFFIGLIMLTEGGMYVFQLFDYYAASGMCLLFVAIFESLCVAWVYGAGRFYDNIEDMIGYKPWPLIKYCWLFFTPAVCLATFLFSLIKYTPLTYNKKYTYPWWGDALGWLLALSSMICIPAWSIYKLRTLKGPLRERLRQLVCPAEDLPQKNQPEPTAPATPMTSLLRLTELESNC

GABA transporter 4 = biological target: T2, GABA transporter 4 (Mus musculus, UniProt P31650); assay: Inhibition of mouse mGAT4 expressed in HEK293 cells assessed as inhibition of [3H]GABA uptake after 3 mins incubation by TopCount microplate scintillation counting analysis
T2 sequence (P31650 whole entry): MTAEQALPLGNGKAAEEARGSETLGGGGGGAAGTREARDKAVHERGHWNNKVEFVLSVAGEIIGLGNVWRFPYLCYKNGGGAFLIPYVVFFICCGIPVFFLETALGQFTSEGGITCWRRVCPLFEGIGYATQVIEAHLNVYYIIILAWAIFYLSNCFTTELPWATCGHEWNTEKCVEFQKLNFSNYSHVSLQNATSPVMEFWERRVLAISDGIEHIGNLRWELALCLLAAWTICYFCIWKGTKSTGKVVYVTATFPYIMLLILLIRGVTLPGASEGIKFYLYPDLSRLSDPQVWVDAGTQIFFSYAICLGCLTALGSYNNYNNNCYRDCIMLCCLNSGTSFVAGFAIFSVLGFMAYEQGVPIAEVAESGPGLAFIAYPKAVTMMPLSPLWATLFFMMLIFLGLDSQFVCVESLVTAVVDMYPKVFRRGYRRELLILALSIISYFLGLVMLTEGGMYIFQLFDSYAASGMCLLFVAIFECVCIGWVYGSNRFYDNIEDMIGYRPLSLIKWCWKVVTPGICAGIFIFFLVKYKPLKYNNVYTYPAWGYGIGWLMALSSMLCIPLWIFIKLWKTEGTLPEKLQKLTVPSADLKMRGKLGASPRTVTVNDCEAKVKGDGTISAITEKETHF

GABA transporter 2 = biological target: T3, GABA transporter 2 (Mus musculus, UniProt P31651); assay: Inhibition of mouse mGAT2 expressed in HEK293 cells assessed as inhibition of [3H]GABA uptake after 3 mins incubation by TopCount microplate scintillation counting analysis
T3 sequence (P31651 whole entry): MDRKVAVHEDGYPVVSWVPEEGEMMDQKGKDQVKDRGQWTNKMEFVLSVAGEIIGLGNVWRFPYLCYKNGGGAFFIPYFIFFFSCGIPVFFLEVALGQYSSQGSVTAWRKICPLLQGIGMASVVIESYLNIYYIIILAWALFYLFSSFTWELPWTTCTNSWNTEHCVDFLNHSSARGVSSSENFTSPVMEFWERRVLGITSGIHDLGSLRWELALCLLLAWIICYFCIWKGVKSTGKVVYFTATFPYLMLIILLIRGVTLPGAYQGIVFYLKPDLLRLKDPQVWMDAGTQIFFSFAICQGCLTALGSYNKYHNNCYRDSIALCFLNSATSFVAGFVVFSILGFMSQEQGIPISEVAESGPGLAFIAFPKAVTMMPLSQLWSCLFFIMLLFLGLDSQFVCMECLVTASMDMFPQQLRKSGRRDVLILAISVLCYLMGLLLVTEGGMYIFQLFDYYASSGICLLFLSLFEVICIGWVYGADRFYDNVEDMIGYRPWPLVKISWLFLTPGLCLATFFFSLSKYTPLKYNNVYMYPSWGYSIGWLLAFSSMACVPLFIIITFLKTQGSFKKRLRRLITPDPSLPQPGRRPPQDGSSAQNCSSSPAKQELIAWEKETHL

[1] = biological target: Sodium- and chloride-dependent GABA transporter 1 (Mus musculus, UniProt P31648); assay: Inhibition of mouse mGAT1 expressed in HEK293 cells assessed as inhibition of [3H]GABA uptake after 3 mins incubation by TopCount microplate scintillation counting analysis

IC50 (GABA transporter 3; read-out: IC50) | IC50 (GABA transporter 4; read-out: IC50) | IC50 (GABA transporter 2; read-out: IC50) | IC50 ([1]; read-out: IC50) | IC50 (GABA transporter 4; read-out: pIC50 (converted)) | IC50 (GABA transporter 3; read-out: pIC50 (converted)) | IC50 ([1]; read-out: pIC50 (converted)) | IC50 (GABA transporter 2; read-out: pIC50 (converted)) | SMILES | IC50 (GABA transporter 3; hek293, read-out: IC50) | IC50 (GABA transporter 4; hek293, read-out: IC50)
966 µM | 883 µM | 119 µM | 614 µM | – | – | – | – | CN(CCC=C1c2ccccc2CCc2ccccc21)[C@@H]1CCCC[C@H]1C(=O)O | – | –
1240 µM | 715 µM | 139 µM | 962 µM | 724 µM | – | – | – | CN(CCC=C1c2ccccc2CCc2ccccc21)[C@H]1CCCC[C@@H]1C(=O)O | – | –
393 µM | 299 µM | 97.1 µM | 421 µM | – | – | – | – | CN(CCOC(c1ccc(C(F)(F)F)cc1)c1ccc(C(F)(F)F)cc1)[C@@H]1CCCC[C@H]1C(=O)O | – | –
1840 µM | 649 µM | 147 µM | 1360 µM | – | 1450 µM | – | – | CN(CCC=C1c2ccccc2CCc2ccccc21)[C@H]1CCCC[C@H]1C(=O)O | – | –
1030 µM | 1450 µM | 88.9 µM | 1820 µM | – | – | – | – | CN(CCC=C1c2ccccc2CCc2ccccc21)[C@@H]1CCCC[C@@H]1C(=O)O | – | –
392 µM | 303 µM | 90 µM | 631 µM | – | – | – | – | CN(CCOC(c1ccc(C(F)(F)F)cc1)c1ccc(C(F)(F)F)cc1)[C@H]1CCCC[C@H]1C(=O)O | – | –
336 µM | 539 µM | 63.1 µM | 445 µM | – | – | – | – | CN(CCOC(c1ccc(C(F)(F)F)cc1)c1ccc(C(F)(F)F)cc1)[C@@H]1CCCC[C@@H]1C(=O)O | – | –
687 µM | 821 µM | 81 µM | 425 µM | – | – | 537 µM | – | CN(CCC=C1c2ccccc2CCc2ccccc21)C1CCCC=C1C(=O)O (stereo not given) | – | –
168 µM | 146 µM | 27 µM | 215 µM | – | – | – | – | Cc1ccsc1C(=CCCN(C)[C@H]1CCCC[C@H]1CO)c1sccc1C | – | –
133 µM | 178 µM | 34.8 µM | 239 µM | – | – | – | – | Cc1ccsc1C(=CCCN(C)[C@@H]1CCCC[C@@H]1CO)c1sccc1C | – | –
295 µM | 136 µM | 49.1 µM | 415 µM | – | – | – | – | CN(CCON=C(c1ccccc1)c1ccccc1)[C@H]1CCCC[C@H]1CO | – | –
349 µM | 341 µM | 76.6 µM | 426 µM | – | – | – | 77.6 µM | CN(CCON=C(c1ccccc1)c1ccccc1)[C@@H]1CCCC[C@@H]1CO | – | –
148 µM | 126 µM | 28.3 µM | 191 µM | – | – | – | – | CN(CCC=C1c2ccccc2CCc2ccccc21)[C@H]1CCCC[C@H]1CO | – | –
985 µM | 844 µM | 125 µM | 972 µM | – | – | – | – | CN(CCC=C1c2ccccc2CCc2ccccc21)[C@@H]1CCCC[C@H]1C(=O)O (racemic) | – | –
433 µM | 392 µM | 138 µM | 426 µM | – | – | – | – | CN(CCOC(c1ccc(C(F)(F)F)cc1)c1ccc(C(F)(F)F)cc1)[C@@H]1CCCC[C@H]1C(=O)O (racemic) | – | –
> 1000 µM | > 1000 µM | > 1000 µM | 95.6 µM | – | – | – | – | Cc1ccsc1C(=CCCN1CCNC(C(=O)O)C1)c1sccc1C (racemic) | – | –
1660 µM | 883 µM | 1400 µM | 195 µM | – | – | – | – | Cc1ccsc1C(=CCCN1CCNCC1C(=O)O)c1sccc1C (racemic) | – | –
765 µM | 468 µM | 76.7 µM | 170 µM | – | – | – | – | Cc1ccsc1C(=CCCN(C)C1CCCC=C1C(=O)O)c1sccc1C (stereo in doubt; (E1)-6a) | – | –
584 µM | 413 µM | 67 µM | 403 µM | – | – | – | – | Cc1ccsc1C(=CCCN(C)C1CCCC=C1C(=O)O)c1sccc1C (stereo in doubt; (E2)-6a) | – | –
270 µM | 249 µM | 171 µM | 389 µM | – | – | – | – | CNCCC=C1c2ccccc2CCc2ccccc21 [NORTRIPTYLINE] | – | –

SMILES | IC50 (GABA transporter 3; read-out: IC50) | IC50 (GABA transporter 4; read-out: IC50) | IC50 (GABA transporter 2; read-out: IC50) | IC50 ([1]; read-out: IC50) | IC50 (GABA transporter 4; read-out: pIC50 (converted)) | IC50 (GABA transporter 3; read-out: pIC50 (converted)) | IC50 ([1]; read-out: pIC50 (converted)) | IC50 (GABA transporter 2; read-out: pIC50 (converted)) | IC50 (GABA transporter 3; hek293, read-out: IC50) | IC50 (GABA transporter 4; hek293, read-out: IC50)
Cc1ccsc1C(=CCCN(C)[C@@H]1CCCC[C@@H]1C(=O)O)c1sccc1C | 328 µM | 380 µM | 94.9 µM | 917 µM | – | – | – | – | – | –
Cc1ccsc1C(=CCCN(C)[C@H]1CCCC[C@@H]1C(=O)O)c1sccc1C | 478 µM | 263 µM | 62.2 µM | 264 µM | – | – | – | – | – | –
Cc1ccsc1C(=CCCN(C)[C@@H]1CCCC[C@H]1C(=O)O)c1sccc1C | 633 µM | 551 µM | 133 µM | 194 µM | – | – | – | – | – | –
CN(CCON=C(c1ccccc1)c1ccccc1)[C@@H]1CCCC[C@H]1C(=O)O | – | – | 880 µM | > 2000 µM | – | – | – | – | > 2000 µM | > 2000 µM
Cc1ccsc1C(=CCCN(C)[C@H]1CCCC[C@H]1C(=O)O)c1sccc1C | 941 µM | 289 µM | 21.6 µM | 562 µM | – | – | – | – | – | –
CN(CCON=C(c1ccccc1)c1ccccc1)[C@H]1CCCC[C@H]1C(=O)O | > 1000 µM | > 1000 µM | 417 µM | > 1000 µM | – | – | – | – | – | –
CN(CCON=C(c1ccccc1)c1ccccc1)[C@@H]1CCCC[C@@H]1C(=O)O | > 1000 µM | > 1000 µM | 443 µM | > 1000 µM | – | – | – | – | – | –
CN(CCON=C(c1ccccc1)c1ccccc1)C1CCCC=C1C(=O)O (stereo not given) | > 2000 µM | > 2000 µM | 814 µM | > 2000 µM | – | – | – | – | – | –
CN(CCOC(c1ccc(C(F)(F)F)cc1)c1ccc(C(F)(F)F)cc1)C1CCCC=C1C(=O)O (stereo not given) | > 1000 µM | > 1000 µM | 107 µM | > 1000 µM | – | – | – | – | – | –
O=C(O)C1CN(CCON=C(c2ccccc2)c2ccccc2)CCN1 (racemic) | > 1000 µM | > 1000 µM | > 1000 µM | 216 µM | – | – | – | – | – | –
O=C(O)C1CN(CCOC(c2ccc(C(F)(F)F)cc2)c2ccc(C(F)(F)F)cc2)CCN1 (racemic) | > 1000 µM | 1760 µM | 401 µM | 83 µM | – | – | – | – | – | –
CCN1CCNC(C(=O)O)C1 (racemic) | > 1000 µM | > 1000 µM | > 1000 µM | > 1000 µM | – | – | – | – | – | –
O=C(O)C1CNCCN1CCON=C(c1ccccc1)c1ccccc1 (racemic) | > 1000 µM | > 1000 µM | > 1000 µM | > 1000 µM | – | – | – | – | – | –
CCN1CCNCC1C(=O)O (racemic) | > 1000 µM | > 1000 µM | > 1000 µM | > 1000 µM | – | – | – | – | – | –
